From patent US9963476B2, “Antioxidant compound having anti atherosclerotic effect and preparation thereof” (Council of Scientific and Industrial Research, priority 2015, dated 2018)

Key:
[1] = test system: human aortic endothelial cells (HAEC); assay: Trypan blue cell viability assay, oxidant-induced endothelial cell death; assay type: cell-based; details: 2.5 μM, 2 h pretreatment, H2O2 500 μM or Ang-II 500 nM, 24 h
Procedure: Human aortic endothelial cells (HAECs) were obtained from ATCC (Manassas, Va.) and maintained (37° C. 5% CO2) in basal medium supplemented with 10% FBS, VEGF (5 ng/mL), hEGF (5 ng/mL), hFGF (5 ng/mL), IGF-1 (15 ng/mL), ascorbic acid (50 μg/mL), hydrocortisone (1 μg/mL), amphotericin (15 ng/mL), gentamicin (30 ng/mL) and heparin (0.75 Units/mL). Cells used in this study were between passages 4 and 9. Esculetin, Mito-Esc, TPP and nitric oxide synthase inhibitor (L-NAME) were added 2 h before the addition of H2O2 or Ang-II.
At the end of the treatments, cells were harvested and re-suspended in 0.4% trypan blue (Life Technologies) and percent cell viability was counted using cell countess chamber (Life Technologies).
For this, cells were pretreated for 2 h with either Mito-Esc or esculetin before they were incubated with either H2O2 or Ang-II.

[2] = test system: Ang-II-induced atherosclerosis in ApoE−/− mice; assay: Serum lipid profile of Ang-II treated ApoE−/− mice; assay type: in vivo; details: serum, ApoE−/− mice, 45 days; Ang-II alone or Ang-II + Mito-Esc
Procedure: Experiments were conducted in 2-month-old male apolipoprotein E knockout (ApoE^−/−) mice according to the guidelines formulated for care and use of animals in scientific research (ICMR, New Delhi, India) at a CPCSEA (Committee for the Purpose of Control and Supervision of Experiments on Animals) registered animal facility. […] Animals were randomly divided into 3 groups each n=7:1) control 2) Ang-II treatment and 3) Mito-Esculetin+Ang-II treatment. Ang-II and Mito-Esculetin treatment groups received Ang-II (sigma) at a dose of 1.44 mg/kg/day for 6 weeks through sub-cutaneous route where as control group received normal saline. Mito-Esculetin treatment group received the compound at a dose of 0.5 mg/kg/day in normal drinking water. All animals were fed on normal chow throughout the study. After 6 weeks, all groups of animals were sacrificed as per standard protocols for euthanasia.
We further analyzed the vascular remodelling employing histological stains in tissue sections of thoracic aortas. […] In tune with this, we have also measured Mac-3 levels by flow cytometry.

[3] = test system: Ang-II-induced H2O2 production in HAEC; assay: H2O2 levels by Amplex red assay; assay type: cell-based, human; details: Ang-II 500 nM, 16 h
Procedure: Amplex red reagent was used to detect the released H2O2 from cells. […] Immediately, formation of resorufin fluorescence was measured in multi mode reader (PerkinElmer) with λex=540 and λem=585.
Ang-II is known to increase oxidative stress through increased production of H2O2 (Doughan A K, Harrison D G, Dikalov S I. Circ Res (2008) 102:488-96). […] Further, we assessed the effect of Mito-Esc on H2O2-induced mitochondrial membrane depolarization. HAEC were treated with H2O2 (500 μM) in the presence or absence of Mito-Esc for a period of 16 h and mitochondrial membrane potential was measured using a mitochondrial membrane sensor kit. Mito-Sensor is a cationic dye that fluoresces differently in apoptotic and nonapoptotic cells. […] In apoptotic cells, membrane potentials are altered and the Mito-Sensor dye cannot accumulate in mitochondria and, thus, remain as monomers leading to a green fluorescence.

HAEC = assay: Cellular uptake: Mito-Esc/esculetin quantified by ESI-MS in cytosolic and mitochondrial fractions of HAEC; assay type: in vitro ADME, human; details: HAEC, 2.5 μM, 24 h
Procedure: After the treatment, cells were washed thrice with PBS. Similarly Mito-Esculetin+ Ang-II treatment group, Ang-II alone treatment group and control Apo E^−/− mice aortic tissue was taken. The isolation of mitochondrial and cytosolic extracts was carried out using a commercially available Proteo Extract Cytosol/Mitochondria Fractionation Kit (Cat. no. QIA88-Merck, USA) according to manufacturer's instructions. Initially, mitochondrial and cytosolic fractions were separated using a commercially available kit as mentioned elsewhere. Mito-Esc was quantified in the mitochondrial and cytosolic fractions obtained from HAEC and aorta of ApoE^−/− mice of different treatment groups as mentioned in Animal Experiments section (Table-1). Electrospray ionization (ESI)-MS. ESI-MS (positive mode) measurements were performed using a quadrupole time-of-flight mass spectrometer (QSTAR XL, Applied Biosystems/MDS Sciex, Foster City, Calif., USA). The data acquisition was under the control of Analyst QS software (Applied Biosystems). For the CID (collision-induced dissociation) experiments, the precursor ions were selected using the quadrupole analyzer and the product ions were analyzed using the TOF analyzer.

[4] = test system: caspase-3 and -8 activation in HAEC; assay: Caspase-3 and -8 activity in HAEC lysates; assay type: cell-based, human; details: 2.5 μM pretreatment
Procedure: HAEC were washed twice with cold DPBS and lysed in buffer containing 10-mM Tris-HCl, 10-mM NaH2PO4/Na2HPO4 (pH, 7.5). 130-mM NaCl. 1% Triton, and 10-mM sodium pyrophosphate. Cell lysates were incubated with either with caspase-3 fluorogenic substrate (N-acetyl-Asp-Glu-Val-Asp-7-amido-4-methylcoumarin) or caspase-8 fluorogenic substrate (N-acetyl-Ileu-Glu-Thr-Asp-7 amido-4-methylcoumarin) at 37° C. for 1 h. The 7-amido-4-methyl-coumarin liberated was measured in a multi mode reader (PerkinElmer) with λex=380 nm and λem=460 nm.

[5] = test system: nitric oxide generation in HAEC; assay: Intracellular nitric oxide levels by DAF-2DA fluorescence; assay type: cell-based, human; details: H2O2 500 μM, 2.5 μM, 4 h
Procedure: Intracellular nitric oxide levels were monitored by using the Diaminofluorescein-diacetate (DAF-2DA) fluorescence probe. After the treatments, cells were washed with DPBS and incubated in fresh culture medium without fetal bovine serum (FBS). DAF-2DA was added at a final concentration of 5 μM, and the cells were incubated for 30 minutes. The cells were washed twice with DPBS and maintained in culture medium. Fluorescence was monitored by using Olympus fluorescence microscope with FITC filter (λex=488 nm and […]). Fluorescence intensity was calculated by Image-Pro plus7.0 software.
To gain mechanistic insight on Mito-Esc-mediated protection of endothelial cells from oxidant-induced endothelial cell death, initially we hypothesized that Mito-Esc may augment intracellular nitric oxide generation. To study this, HAEC were treated with both Mito-Esc and esculetin in the presence or absence of H2O2 for a period of 4 h and nitric oxide (NO) levels were monitored by DAF-2 derived green fluorescence. Previously, it has been shown that DAF-2 forms a fluorescent triazole-type product in the presence of an oxidant derived from nitric oxide and oxygen interaction (Proc. Natl. Acad. Sci. USA 99: 11127-11132; 2002.; Am. J. Physiol. Regul. Integ. Comp. Physiol. 286:R344-R431; 2004). […] Next, we investigated the possible role of endothelial nitric oxide synthase (eNOS) in mediating the Mito-Esc induced NO generation in HAEC. For this, endothelial cells were treated with various concentrations of Mito-Esc (1-5 μM) for a period of 8 h. […] To further substantiate the results of DAF fluorescence, eNOS phosphorylation was measured in HAEC incubated with either with H2O2 or Ang-II for 8 h in cells pretreated with Mito-Esc or native esculetin. It was observed that both H2O2 and Ang-II caused a reduction in Phospho eNOS (Ser-1177) levels (FIG. 4D). Ang-II treatment imposed a drastic inhibition of phospho-eNOS levels when compared to H2O2 treatment in endothelial cells (FIG. 4D).

[6] = test system: AMPK1-α phosphorylation (Thr-172); assay: Western blot of AMPK phosphorylation in HAEC; assay type: cell-based, human; details: H2O2 500 μM, 2.5 μM, 8 h
Procedure: Previously, it was shown that AMPK co-immunoprecipitates with cardiac endothelial NO synthase (eNOS) and phosphorylates Ser-1177 in the presence of Ca^2+-calmodulin (CaM) to activate eNOS both in vitro and during ischaemia in rat hearts (FEBS Lett. (1999) 443:285-289). To test whether Mito-Esc mediates increased phosphorylation of eNOS through AMPK activation, initially, HAEC were treated various concentrations of Mito-Esc (1-5 μM) for 8 h and AMPK1-α phosphorylation (Thr-172) levels were measured. […] Next, we investigated the phospho-AMPK1-α levels in HAEC treated with H2O2 in the presence or absence of either Mito-Esc or native esculetin.

Row | Compound | oxidant (H2O2 and Ang-II)-induced endothelial cell death [1] | HDL [2] [mg/dL] | LDL [2] [mg/dL] | Total Cholesterol [2] [mg/dL] | Triglycerides [2] [mg/dL] | VLDL [2] [mg/dL] | H2O2 generation compared to untreated conditions [3] | Cytosolic fraction (HAEC) [nmol/mg protein] | H2O2 and Ang-II-induced caspase-3 and -8 activation [4] | H2O2-mediated depletion of NO levels [5] | AMPK1-α phosphorylation in the presence of H2O2 [6]
1 | c1ccc(P(c2ccccc2)c2ccccc2)cc1 [TPP^+, triphenylphosphonium cation] | did not have any appreciable cytotoxic/cytoprotective effect |  |  |  |  |  |  |  |  |  | 
2 | Angiotensin-II (DRVYIHPF; Angiotensin-2; UniProt P01019 25-32, looked up) [Ang-II, inducer of oxidative stress and atherosclerosis in the models, reference compound] |  | 02.21 ± 1.2 | 423.93 ± 29.6 | 656.19 ± 34.2 | 234.50 ± 21.5 | 46.9 ± 2.2 | around 2.7 fold |  |  |  | 
3 | O=c1ccc2cc(O)c(O)cc2o1 [Esculetin, 6,7-dihydroxycoumarin, reference compound] | but not esculetin significantly inhibited |  |  |  |  |  |  | 6249 ± 235 | marginal effect | did not show any noticeable effect | significantly decreased
